Experimental data from US7910111B2, “Inhibitors of N-ethylmaleimide sensitive factor” (The Johns Hopkins University, priority 2003, dated 2011).
No end group written: not given here.

Experiments:
[1] = tested on: human aortic endothelial cells (HAEC); details: for effect on thrombin induced vWF release, dose response: HAEC pre-treated with increasing amounts, DEA-NONOate 10 min, DETA-NONOate 16 h, SNAP 6 h, NEM 1 h, L-NAME 16 h; for effect on thrombin stimulated vWF release: HAEC pre-treated with reagent, thrombin 1 U/ml 1 h; for effect of peptide on thrombin induced vWF release: HAEC incubated 20 min with peptide
Experimental: To explore the effect of NO upon granule exocytosis, thrombin induced exocytosis of Weibel-Palade bodies from human aortic endothelial cells (HAEC) which release von Willebrand's Factor (vWF) was studied. HAEC was pre-treated with an NO donor 2-(N,N-diethylamino)-diazenolate-2-oxide (DEA-NONOate) 10 mM or with DEA as a control, stimulated the cells with thrombin 1 U/ml for 1 h, and the amount of vWF released into the media was then measured. […] HAEC was then pre-treated with increasing amounts of various NO donors, including a rapidly releasing NO donor DEA-NONOate for 10 min, a slowly releasing NO donor DETA-NONOate for 16 h, or a nitrosothiol S-nitroso-penicillamine (SNAP) for 6 h; alternatively, cells were treated with NEM for 1 h.
The role of endogenous NO in the regulation of Weibel-Palade body exocytosis was then explored. HAEC was pre-treated with L-NAME for 16 h in order to inhibit endogenous NOS, and then the cells were stimulated with 1 U/ml thrombin for 1 h and vWF release was measured. […] HAEC was next pre-treated with vascular endothelial growth factor (VEGF) in order to activate endogenous NOS3. Cells were incubated with 50 ng/ml VEGF or control for 2 h, and then stimulated with thrombin.
A peptide inhibitor of NSF that crosses cell membranes was designed. This peptide, designated TAT-NSF222, includes the protein transduction domain of HIV TAT (residues 47-57) previously shown to transduce polypeptides into cells (Becker-Hapak et al., 2001), fused to a fragment of NSF (residues 222-243) previously shown to inhibit NSF (Schweizer et al., 1998). […] HAEC were then incubated for 20 min with TAT-NSF222, or with a control peptide TAT-NSF222scr that consisted of the intact TAT domain followed by the amino acid residues of NSF 222-243 in a scrambled order. HAEC were transduced with TAT-NSF peptides, treated with media or thrombin, and the amount of vWF released into the media was measured by ELISA.
Since NSF plays a general role in vesicle trafficking, permanent inactivation of NSF would slow vesicular trafficking in general. However, local production of NO at the plasma membrane and reversible nitrosylation of NSF could provide spatial regulation of NSF.
Human aortic endothelial cells (HAEC) and EGM-2 media were obtained from Clonetics (Walkersville, Md.). HAEC were pre-treated with NO donors, washed, stimulated with 1 U/mil of thrombin, and the amount of vWF released into the media was measured by an ELISA (American Diagnostica, Greenwich, Conn.). HAEC were permeabilized by incubation with 10 U/well of SLO (Sigma) in PBS pH 7.4 for 15 min at 37° C. (Walev et al., 2001). Some cells were incubated with 20-200 μg/ml of antibodies or with 100 μg/ml of recombinant NSF. Cells were then resealed by incubation with EGM-2 media for 4 h at 37° C., washed with EGM-2 media, and stimulated with thrombin as above.
The ability of TAT-NSF to affect exocytosis from cells was investigated. Endothelial cells release vWF by exocytosis when stimulated by thrombin. Accordingly, endothelial cells were incubated with increasing amounts of TAT-NSF peptides for 20 min, then treated with 1 U/ml thrombin, and the amount of vWF released into the media was measured by ELISA.
Human aortic endothelial cells (HAEC) and EGM-2 media were obtained from Clonetics (Walkersville, Md.). HAEC were pre-treated with TAT-NSF peptides for 20 min, washed, stimulated with 1 U/ml of thrombin, and the amount of vWF released into the media was measured by an ELISA (American Diagnostica, Greenwich, Conn.).

[2] = biological target: T1, recombinant NSF (Cricetulus griseus, UniProt P18708); test: NSF ATPase assay (coupled colorimetric assay); type: biochemical
T1 construct: RGS-(His)6 (N); made in house; host or cells: bacteria
T1 sequence (P18708 whole entry): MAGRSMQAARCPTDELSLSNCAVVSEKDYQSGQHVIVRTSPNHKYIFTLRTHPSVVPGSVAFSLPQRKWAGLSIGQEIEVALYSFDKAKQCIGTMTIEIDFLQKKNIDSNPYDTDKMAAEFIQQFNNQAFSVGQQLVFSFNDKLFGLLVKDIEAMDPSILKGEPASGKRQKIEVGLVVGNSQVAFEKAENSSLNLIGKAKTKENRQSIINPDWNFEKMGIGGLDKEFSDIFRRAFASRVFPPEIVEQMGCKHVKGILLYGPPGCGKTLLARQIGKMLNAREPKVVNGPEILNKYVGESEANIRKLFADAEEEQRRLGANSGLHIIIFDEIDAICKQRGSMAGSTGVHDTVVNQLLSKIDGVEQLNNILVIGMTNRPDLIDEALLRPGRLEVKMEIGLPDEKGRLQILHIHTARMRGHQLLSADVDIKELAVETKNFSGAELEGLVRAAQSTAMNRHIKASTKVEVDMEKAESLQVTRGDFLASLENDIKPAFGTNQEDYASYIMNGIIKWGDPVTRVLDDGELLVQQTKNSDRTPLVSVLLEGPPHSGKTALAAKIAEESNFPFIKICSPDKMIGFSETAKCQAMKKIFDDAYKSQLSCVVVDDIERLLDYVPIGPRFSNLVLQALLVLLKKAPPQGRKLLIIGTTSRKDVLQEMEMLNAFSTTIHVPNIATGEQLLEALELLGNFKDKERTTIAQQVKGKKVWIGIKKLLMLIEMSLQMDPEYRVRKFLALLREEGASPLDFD
Experimental: The effect of NO upon NSF activity was next explored, since NO inhibits Weibel-Palade body exocytosis, and since NSF regulates Weibel-Palade body exocytosis. The effect of NO upon the ATPase activity of NSF was first examined. DEA-NONOate was added to recombinant NSF, and the ATPase activity of NSF was measured.
(§1) The ATPase activity of NSF was measured by a coupled assay, in which ATP utilization is linked to the pyruvate kinase reaction, which generates pyruvate, which in turn is measured continuously with lactate dehydrogenase (Huang and Hackney, 1994). Recombinant NSF (0.2 μg/μl) was pre-treated with buffer or DEA or DEA-NONOate or NEM for 10 min at 22° C. ATPase reaction buffer (100 mM HEPES buffer, pH 7.0, 100 mM KCl, 10 mM MgCl2, 5 mM CaCl2, 10 mM ATP, 5 mM phosphoenol pyruvate, 50 U lactate dehydrogenase, and 50 U pyruvate kinase) was added to the mixture, followed by 10 μl of NADH (2 mg/ml in 1% sodium bicarbonate). The mixture was incubated for 10 min at 22° C., and the absorbance was measured at 340 nm.
The effect of the TAT-NSF peptide inhibitors upon the ability of NSF to hydrolyze ATP was measured. 10 μM TAT-NSF peptides was added to recombinant NSF, and the hydrolysis of ATP was measured. All 5 TAT-NSF peptides inhibited NSF ATPase activity (FIG. 8A). […] The effects of TAT-NSF81 (SEQ ID NO: 6) upon NSF were further defined. TAT-NSF81 (SEQ ID NO: 6) inhibits NSF ATPase activity in a dose-dependent manner with an IC50% between 1-10 μM (FIG. 8B).
as §1, with “TAT-NSF peptides” for “DEA or DEA-NONOate or NEM”

[3] = tested on: mice; test: bleeding time in mice after tail amputation (Example 1); type: in vivo; details: intravenous; for effect on bleeding time: tail amputated after 45 min
Experimental: To explore the physiological relevance of NSF regulation of Weibel-Palade body exocytosis, the effect of the NSF inhibitory peptide upon the bleeding time in mice was measured. Anesthetized mice were injected intravenously with saline, TAT-NSF222, or the control peptide TAT-NSF222scr; and after 45 min the distal 5 mm of tail was amputated and the bleeding time measured. […] In fact, 3 of the 6 mice treated with the TAT-NSF222 peptide had bleeding times in excess of 20 min.
Measurement of bleeding time in mice was performed as previously described (Weiss et al., 2002). Mice were anesthetized with an intramuscular injection of ketamine and xylazine, and 5 mm of the distal tip of the tail was amputated. The tail was blotted with filter paper every 5 sec until the paper was no longer stained. If the animals bled for 20 min, the experiment was stopped, and the bleeding time was recorded as 20 min.

[4] = biological target: T2, NSF disassembly of the SNARE complex (Cricetulus griseus, UniProt P18708); type: biochemical; details: recombinant NSF, α-SNAP, GST-SNAREs, ATP; TAT-NSF peptides 1 μM in Example 2
T2 construct: made in house; host or cells: bacteria (NSF, alpha-SNAP); BL21 cells (GST-SNAREs)
T2 sequence (P18708 whole entry): as above
T2 sequence (P81125 whole entry partner): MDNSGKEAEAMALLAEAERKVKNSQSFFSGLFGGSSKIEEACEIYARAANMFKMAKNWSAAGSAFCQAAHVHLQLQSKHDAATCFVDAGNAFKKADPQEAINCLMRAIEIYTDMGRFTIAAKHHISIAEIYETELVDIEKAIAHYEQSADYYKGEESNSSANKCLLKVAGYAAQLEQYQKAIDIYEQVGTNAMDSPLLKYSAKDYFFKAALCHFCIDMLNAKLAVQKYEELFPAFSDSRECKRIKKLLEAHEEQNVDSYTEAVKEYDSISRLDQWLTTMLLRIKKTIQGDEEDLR
T2 sequence (Q12846 whole entry partner): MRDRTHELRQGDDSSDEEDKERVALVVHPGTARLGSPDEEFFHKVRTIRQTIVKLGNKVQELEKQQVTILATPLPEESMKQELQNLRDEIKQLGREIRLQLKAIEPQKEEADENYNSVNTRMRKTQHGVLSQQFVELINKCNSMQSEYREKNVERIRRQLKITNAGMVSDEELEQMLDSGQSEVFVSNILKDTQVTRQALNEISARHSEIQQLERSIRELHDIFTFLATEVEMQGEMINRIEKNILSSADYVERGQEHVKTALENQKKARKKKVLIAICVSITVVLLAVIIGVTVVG
T2 sequence (Q15836 whole entry partner): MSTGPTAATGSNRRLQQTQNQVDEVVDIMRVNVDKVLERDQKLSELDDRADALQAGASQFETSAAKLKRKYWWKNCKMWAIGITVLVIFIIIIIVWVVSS
T2 sequence (O00161 whole entry partner): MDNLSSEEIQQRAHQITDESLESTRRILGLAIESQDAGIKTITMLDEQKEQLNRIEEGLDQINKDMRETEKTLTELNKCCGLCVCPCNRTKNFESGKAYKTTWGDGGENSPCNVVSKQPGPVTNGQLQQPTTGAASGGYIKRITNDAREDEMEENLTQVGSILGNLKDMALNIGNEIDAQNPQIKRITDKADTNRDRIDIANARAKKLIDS
Experimental: Accordingly, recombinant NSF was pre-treated with the NO donor DEA-NONOate 1 mM for 10 min. Pre-treated NSF, α-SNAP, and detergent extracts of HAEC membranes were then mixed in the presence of 0.5 mM ATP or ATP-γS. These reactions were then fractionated by sucrose density gradient ultracentrifugation, fractions were collected from the bottom of the tube, and immunoblotted with antibody to syntaxin-4.
The effect of NO upon NSF disassembly of purified, recombinant SNARE molecules was next examined. Recombinant (His)6-NSF was pre-treated or not with 1 mM DEA-NONOate for 10 min, and then mixed with and (His)6-a-SNAP and recombinant SNARE fusion polypeptides identified in endothelial cells: GST-syntaxin-4, VAMP-3, and SNAP-23. ATP or ATP-γS was added, the mixture was precipitated with glutathione-sepharose beads, and precipitated proteins were fractionated by SDS-PAGE and immunoblotted with antibody to the NSF tag.
The disassembly activity of NSF was measured by a co-precipitation assay (Pevsner et al., 1994). […] This mixture of NSF and SNARE polypeptides was then incubated in binding buffer (4 mM HEPES pH 7.4, 0.1M NaCl, 1 mM EDTA, 3.5 mM CaCl2, 3.5 mM MgCl2, and 0.5% Nonidet P-40) and glutathione-sepharose beads for 1 h at 4° C. with rotation. The beads were washed with binding buffer 4 times, mixed with SDS-PAGE sample buffer, boiled for 3 min, and analyzed by immunoblotting.
The effect of the TAT-NSF peptide inhibitors upon the ability of NSF to separate from SNARE complexes was measured. Recombinant NSF was pre-treated with 1 μM TAT-NSF peptides, and recombinant GST-SNARE polypeptides were then added, including syntaxin-4, SNAP-23, and VAMP-3. […]
The effect of TAT-NSF peptides on NSF disassembly activity was determined. […]
TAT-NSF81 (SEQ ID NO: 6) inhibition of NSF disassembly activity was also investigated. […] ATP was added, GST-SNAREs were precipitated with glutathione-sepharose, and the precipitant was analyzed for the co-precipitation of NSF.
The disassembly activity of NSF was measured by a co-precipitation assay (Pevsner et al., 1994). […]

[5] = tested on: mice; test: myocardial infarction (coronary ligation/reperfusion) in mice; type: in vivo
Experimental: The ability of the fusion peptides of the present invention to impact cardiac infraction was investigated. Mice were pre-treated intravenously with vehicle or 5 ug/mouse TAT-NSF700 (SEQ ID NO: 8) peptide 15 min prior to infarction. Myocardial infarctions were created in mice by ligation of the left anterior descending coronary artery. Myocardial ischemia was maintained for 35 minutes, and then the ligation of the coronary artery was released, and reperfusion continued for 24 h.
The mice were then sacrificed and the size of the myocardial infarction was quantitated as previously done (Jones S P, Greer J J, Kakkar A K, Ware P D, Turnage R H, Hicks M, van Haperen R, de Crom R, Kawashima S, Yokoyama M, Lefer D J. Am J Physiol Heart Circ Physiol. 2004 January; 286(1):H276-82. Epub 2003 Sep. 11.). The area at risk (AAR) was measured with Evans blue dye, the left ventricle (LV) area was measured by planimetery, and the infarct area (INF) was measured with TTC staining. There were 7 mice per group.

[6] = tested on: mice; test: platelet adherence to mesenteric venules in mice (intravital microscopy); type: in vivo
Experimental: To further examine the physiological relevance of NO regulation of Weibel-Palade body exocytosis, the effect of endogenous NO upon platelet interactions with endothelial cells in vivo was measured. Platelet rolling, or transient adherence of platelets to the walls of blood vessels, is mediated by vWF released by exocytosis (Andre et al., 2000). Inhibition of endogenous NO synthesis might permit an increase in Weibel-Palade body exocytosis, an increase in released vWF, and an increase in platelet adherence to venule walls. […] Intravital microscopy was next employed to explore the effects of endogenous NO upon platelet rolling in vivo. Anesthetized mice were pre-treated or not with L-NAME, and then transfused with calcein-AM labeled platelets. The mesentery was externalized, superfused with histamine, and intravital microscopy was used to record interactions of fluorescently labeled platelets with mesenteric venules. Platelets were classified as adherent if they were transiently captured by the endothelium and then translocated in a stop-and-go fashion for a minimum of 2 seconds. […]
Measurements of platelet adherence in mice was adapted from Andre et al. (Andre et al., 2000). […] Platelet adherence was expressed as the number of adhering fluorescent cells per square millimeter of venular surface, calculated from the diameter and length of segment viewed.

For `NCCN(CCN)/[N+]([O-])=N/O` [DETA-NONOate, dithylenetriamine (DETA)-NONOate], the “effect on thrombin induced vWF release, dose response” value (“effect … dose response” below) [1] was “inhibits thrombin induced vWF release”.

In the case of “vascular endothelial growth factor [VEGF]”, the “effect on thrombin stimulated vWF release” value [1] is reported as “decreases thrombin stimulated vWF release”.

For “YGRKKRRQRRR-GGG-GLDKEFNSIFRRAFASRVFPPE (YGRKKRRQRRRGGGGLDKEFNSIFRRAFASRVFPPE; fusion peptide) [TAT-NSF222]”, the “effect of peptide on thrombin induced vWF release” value [1] was “inhibits vWF release in a dose-dependent manner”, the “effect on NSF ATPase activity” value ([2]; recombinant NSF) was “inhibits both NSF ATPase activity” and the “mice with bleeding times in excess of 20 min” value ([3]; 45 min) was 3 of the 6. The “effect on bleeding time” value [3] was “dramatically prolongs the bleeding time” and the “effect on NSF disassembly activity” value [4] was “also NSF disassembly activity”.

For `CC(=N)NCc1cccc(CN)c1` [1400W], the “effect on thrombin stimulated vWF release” value [1] was “had no effect”.

For “YGRKKRRQRRR-GGG-ENSFRFLADIFPAKAFPVRFE (YGRKKRRQRRRGGGENSFRFLADIFPAKAFPVRFE; fusion peptide) [TAT-NSF222scr]”, the “effect on bleeding time” value [3] was “has no effect upon bleeding time”.

`CCN1C(=O)C=CC1=O` [NEM] was tested, and the “effect … dose response” value [1] was “inhibits thrombin induced vWF release”.

For “YGRKKRRQRRR-GGG-LLDYVPIGPRFSNLVLQALLVL (YGRKKRRQRRRGGGLLDYVPIGPRFSNLVLQALLVL; fusion peptide) [TAT-NSF700]”, the “effect of peptide on thrombin induced vWF release” value [1] was “most effective at inhibiting release of vWF”, the “effect on NSF ATPase activity at 10 μM peptide” value ([2]; 10 μM TAT-NSF peptides, recombinant NSF) was “more effective than the other peptides” and the “size of the infarct” value ([5]; mice, 5 ug/mouse i.v. 15 min prior to infarction, 35 min ischemia, 24 h reperfusion) was 44%+/−3. For the same compound, the “absolute reduction in infarct size” value ([5]; vs vehicle treated mice) was 12% and the “relative reduction in infarct size” value ([5]; vs vehicle treated mice) was 21%.

`COC(=O)[C@@H](N)CCCNC(=N)N[N+](=O)[O-]` [L-NAME, L-nitroarginine-methyl-ester] was tested, and the “effect … dose response” value [1] was “increases thrombin stimulated vWF release in a dose-dependent manner”, the “effect on thrombin stimulated vWF release” value [1] was “increases the amount of vWF released” and the “effect on VEGF inhibition of thrombin stimulated vWF release” value ([1]; L-NAME 1 mM, VEGF 50 ng/ml 2 h) was “blocks the effects of VEGF treatment”. The “histamine induced platelet interactions with the venule wall, frequency vs non-treated mice” value ([6]; 5 mg/kg L-NAME intravenously, histamine superfusion) was “more than double” and the “time of peak platelet-venule interactions after histamine treatment” value ([6]; L-NAME pre-treated) was 6 min.

“YGRKKRRQRRRGGGALYSFDKAKQCIGTMTIEID [TAT-NSF81]” showed an IC50 ([1]; read-out: IC50% for inhibition of endothelial exocytosis (vWF release), HAEC, 20 min pre-treatment, thrombin 1 U/ml) of 1 to 10 µM and an IC50 [2] of 1 to 10 µM.
